Molecular target: P. falciparum apicoplast DNA polymerase (Pf-apPOL) (Plasmodium falciparum, UniProt Q8ILY1)
Experiment: Fluorescence-based high-throughput DNA polymerase assay (molecular beacon), primary screen and dose-response;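 on % inhibition ApPOL 90': test concentration in µM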;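 on % inhibition apPOL 180': test concentration in µM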
Format: biochemical
Conditions: for DNA Pol: 90 min, 10 µM; for IC50: supplemental file 2, sheet IC50 nontoxic compounds, Pf-apPOL
How it was run: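 Single-point screening used 10 µM compound with 20 nM polymerase, 20 nM hairpin substrate and 6 µM dNTPs for 90 min at 25 °C. Confirmatory titrations (2.5–80 µM) followed fluorescence at three times, and IC50 was derived from a fit including a cooperativity term n.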

[1] = 'DNA Pol', screening value, unit not given
[2] = conc 20 (unit not given), 40', DRC-2
[3] = primary screen hit value, DNA Pol (186 hits)

Sequence of P. falciparum apicoplast DNA polymerase (Pf-apPOL) (Q8ILY1 entry or part of it): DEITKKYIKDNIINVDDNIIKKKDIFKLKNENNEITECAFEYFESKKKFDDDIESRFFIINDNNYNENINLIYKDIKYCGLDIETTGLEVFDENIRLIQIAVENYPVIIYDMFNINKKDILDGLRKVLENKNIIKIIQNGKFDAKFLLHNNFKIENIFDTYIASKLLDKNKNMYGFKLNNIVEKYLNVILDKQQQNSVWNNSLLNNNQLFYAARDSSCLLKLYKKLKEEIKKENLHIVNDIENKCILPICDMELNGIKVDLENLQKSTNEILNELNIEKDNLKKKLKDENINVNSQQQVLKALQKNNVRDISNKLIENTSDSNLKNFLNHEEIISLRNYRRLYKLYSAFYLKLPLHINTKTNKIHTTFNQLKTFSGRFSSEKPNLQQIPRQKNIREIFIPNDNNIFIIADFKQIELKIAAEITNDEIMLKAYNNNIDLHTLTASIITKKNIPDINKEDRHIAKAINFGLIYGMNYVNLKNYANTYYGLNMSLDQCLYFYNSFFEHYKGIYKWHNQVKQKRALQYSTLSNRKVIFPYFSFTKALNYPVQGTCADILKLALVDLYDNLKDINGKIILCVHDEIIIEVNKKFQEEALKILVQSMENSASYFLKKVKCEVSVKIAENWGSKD

CCOc1ccccc1-c1nc(-c2ccc(=O)[nH]c2)no1 [Molecule 76, CCOc1ccccc1c1onc(n1)c1ccc(=O)[nH]c1]
DNA Pol [1]: 20 | % inhibition Apo pol 10' (DRC-1, concentration 2.5): 0.6967% | % inhibition Apo pol 10' (DRC-1, concentration 5): 11.2745% | % inhibition Apo pol 10' (DRC-1, concentration 10): 18.9586% | % inhibition Apo pol 10' (DRC-1, concentration 20): 38.1067% | % inhibition Apo pol 10' (DRC-1, concentration 40): 53.5893% | % inhibition Apo pol 10' (DRC-1, concentration 80): 52.085% | % inhibition Apol 90' (DRC-1, 90', concentration 2.5): 1.791% | % inhibition Apol 90' (DRC-1, 90', concentration 5): 6.12% | % inhibition Apol 90' (DRC-1, 90', concentration 10): 9.377% | % inhibition Apol 90' (DRC-1, 90', concentration 20): 23.8682% | % inhibition Apol 90' (DRC-1, 90', concentration 40): 40.5664% | % inhibition Apol 90' (DRC-1, 90', concentration 80): 58.194% | % inhibition apPOL 180' (DRC-1, 180', concentration 2.5): 0.4069% | % inhibition apPOL 180' (DRC-1, 180', concentration 5): -0.1254% | % inhibition apPOL 180' (DRC-1, 180', concentration 10): 3.145% | % inhibition apPOL 180' (DRC-1, 180', concentration 20): 13.7998% | % inhibition apPOL 180' (DRC-1, 180', concentration 40): 29.3034% | % inhibition apPOL 180' (DRC-1, 180', concentration 80): 52.1842% | % inhibition Apo pol 5' (DRC-2, 5', concentration 2.5): -5.31% | % inhibition Apo pol 5' (DRC-2, 5', concentration 5): 5% | % inhibition Apo pol 5' (DRC-2, 5', concentration 10): 19% | % inhibition Apo pol 5' (DRC-2, 5', concentration 20): 30% | % inhibition Apo pol 5' (DRC-2, 5', concentration 40): 44% | % inhibition Apo pol 5' (DRC-2, 5', concentration 80): 29% | % inhibition Apol 40' (DRC-2, 40', concentration 2.5): 0.0959% | % inhibition Apol 40' (DRC-2, 40', concentration 5): 6.65% | % inhibition Apol 40' (DRC-2, 40', concentration 10): 18% | % inhibition Apol 40' (DRC-2, 40', concentration 20): 30% | % inhibition Apol 40' (DRC-2, 40', concentration 40): 50% | % inhibition Apol 40' (DRC-2, 40', concentration 80): 55% | % inhibition ApPOL 90' (DRC-2, 90', concentration 2.5): -0.625% | % inhibition ApPOL 90' (DRC-2, 90', concentration 5): 5% | % inhibition ApPOL 90' (DRC-2, 90', concentration 10): 15% | % inhibition ApPOL 90' (DRC-2, 90', concentration 20): 26% | % inhibition ApPOL 90' (DRC-2, 90', concentration 40): 48% | % inhibition ApPOL 90' (DRC-2, 90', concentration 80): 56% | % inhibition apPOL 180' (DRC-2, 180', concentration 2.5): -3% | % inhibition apPOL 180' (DRC-2, 180', concentration 5): 1.18% | % inhibition apPOL 180' (DRC-2, 180', concentration 10): 8% | % inhibition apPOL 180' (DRC-2, 180', concentration 20): 16% | % inhibition apPOL 180' (DRC-2, 180', concentration 40): 37% | % inhibition apPOL 180' (DRC-2, 180', concentration 80): 54% | % inhibition Apo pol 5' (conc 5 (unit not given), 5', DRC-2): 5% | % inhibition ApPOL 90' (conc 5 (unit not given), 90', DRC-2): 5% | % inhibition Apo pol 5' (conc 20 (unit not given), 5', DRC-2): 30% | % inhibition Apol 40' [2]: 30% | DNA Pol [3]: 20

CCOc1ccccc1-c1nc(-c2ccc(=O)[nH]c2)no1 [Molecule 76]
IC50: 38.7 µM

CN(C)C=C1SCc2ccccc2C1=O [Molecule 77, CN(C=C1SCc2c(C1=O)cccc2)C]
DNA Pol [1]: 85 | % inhibition Apo pol 10' (DRC-1, concentration 2.5): 11.5763% | % inhibition Apo pol 10' (DRC-1, concentration 5): 16.7667% | % inhibition Apo pol 10' (DRC-1, concentration 10): 31.6418% | % inhibition Apo pol 10' (DRC-1, concentration 20): 51.9221% | % inhibition Apo pol 10' (DRC-1, concentration 40): 56.5642% | % inhibition Apo pol 10' (DRC-1, concentration 80): 84.5209% | % inhibition Apol 90' (DRC-1, 90', concentration 2.5): 2.782% | % inhibition Apol 90' (DRC-1, 90', concentration 5): 3.396% | % inhibition Apol 90' (DRC-1, 90', concentration 10): 10.9684% | % inhibition Apol 90' (DRC-1, 90', concentration 20): 24.755% | % inhibition Apol 90' (DRC-1, 90', concentration 40): 26.7268% | % inhibition Apol 90' (DRC-1, 90', concentration 80): 62.9199% | % inhibition apPOL 180' (DRC-1, 180', concentration 2.5): -2.727% | % inhibition apPOL 180' (DRC-1, 180', concentration 5): -5.416% | % inhibition apPOL 180' (DRC-1, 180', concentration 10): 0.7299% | % inhibition apPOL 180' (DRC-1, 180', concentration 20): 8.887% | % inhibition apPOL 180' (DRC-1, 180', concentration 40): 10.8248% | % inhibition apPOL 180' (DRC-1, 180', concentration 80): 43.5104% | % inhibition Apo pol 5' (DRC-2, 5', concentration 2.5): 2.65% | % inhibition Apo pol 5' (DRC-2, 5', concentration 5): 5.48% | % inhibition Apo pol 5' (DRC-2, 5', concentration 10): 20% | % inhibition Apo pol 5' (DRC-2, 5', concentration 20): 33% | % inhibition Apo pol 5' (DRC-2, 5', concentration 40): 41% | % inhibition Apo pol 5' (DRC-2, 5', concentration 80): 52% | % inhibition Apol 40' (DRC-2, 40', concentration 2.5): 2% | % inhibition Apol 40' (DRC-2, 40', concentration 5): 4% | % inhibition Apol 40' (DRC-2, 40', concentration 10): 13% | % inhibition Apol 40' (DRC-2, 40', concentration 20): 26% | % inhibition Apol 40' (DRC-2, 40', concentration 40): 34% | % inhibition Apol 40' (DRC-2, 40', concentration 80): 57% | % inhibition ApPOL 90' (DRC-2, 90', concentration 2.5): 0.807% | % inhibition ApPOL 90' (DRC-2, 90', concentration 5): 1% | % inhibition ApPOL 90' (DRC-2, 90', concentration 10): 8% | % inhibition ApPOL 90' (DRC-2, 90', concentration 20): 18% | % inhibition ApPOL 90' (DRC-2, 90', concentration 40): 26% | % inhibition ApPOL 90' (DRC-2, 90', concentration 80): 54% | % inhibition apPOL 180' (DRC-2, 180', concentration 2.5): -3% | % inhibition apPOL 180' (DRC-2, 180', concentration 5): -3.45% | % inhibition apPOL 180' (DRC-2, 180', concentration 10): 0.193% | % inhibition apPOL 180' (DRC-2, 180', concentration 20): 7.49% | % inhibition apPOL 180' (DRC-2, 180', concentration 40): 14% | % inhibition apPOL 180' (DRC-2, 180', concentration 80): 45% | % inhibition Apol 40' [2]: 26% | % inhibition ApPOL 90' (conc 40 (unit not given), 90', DRC-2): 26% | DNA Pol [3]: 85

CN(C)C=C1SCc2ccccc2C1=O [Molecule 77]
IC50: 23.7 µM

Reference: article PMC9090415, “Discovery of small molecule inhibitors of Plasmodium falciparum apicoplast DNA polymerase” (Journal of Enzyme Inhibition and Medicinal Chemistry, 2022)
